We go through five compounds from US20150079174A1, “ANTIMICROBIAL COMPLEXES” (Matera, LDA, priority 2012, published 2015).

The nature of data set [1]: Critical micelle concentration (CMC) with fluorescent probe N-phenyl-1-naphthylamine. The class given is physicochemical. The conditions noted are these: surfactant in PBS pH 7.4. Here is the method: Critical Micelle Concentration (CMC) was determined for a range of surfactants, following the method described by Brito et al. ‘Determination of the critical micelle concentration of surfactants using the fluorescent probe N-phenyl-1-naphthylamine.’ Anal. Biochem 1986 (152) 250-255.
Briefly, the surfactants were dissolved in PBS (pH 7.4), serially diluted and mixed with N-phenyl-1-naphthylamine (NPN; TCI). The fluorescence of each sample was quantified (excitation at 350 nm; emission at 420 nm) and plotted against the concentration of each surfactant. The CMC was found at the intersection of two straight lines traced on the emission intensity plot, defining the aqueous and micellar environments.
The evolution of SWCNTs resuspension was performed by optical density measurement (at 600 nm) on a microplate reader. N-phenyl-1-naphthylamine (NPN) (Sigma-Aldrich) was used to determine the DDAB critical micelle concentration (CMC) and the presence of micelles on the SWCNT suspension. A solution of NPN of 2×10^−1 M in ethanol was prepared and further diluted in PBS to the working concentration of 2×10^−4 M. DDAB or SWCNT-DDAB suspensions were mixed in equal volumes on a opaque 96-well plate and the fluorescence measured with the assistance of a SpectraMax Fluoremeter using an excitation and emission wavelength of 320 and 450 nm, respectively.

Data set [2] concerns Staphylococcus aureus ATCC 6538. Description: Minimal inhibitory concentration (growth kinetics at 600 nm / broth microdilution). The conditions noted are these: for MIC: Staphylococcus aureus, ATCC6538, 18 h.
Protocol: (§1) Growth kinetics of Candida albicans ATCC 10231 (C. albicans, fungi), Staphylococcus aureus ATCC 6538 (S. aureus, gram-positive bacteria) and Escherichia coli ATCC 25922 (E. coli, gram-negative bacteria) (1×10^5 cells/ml) exposed to variable concentrations (from 62.5 to 500 μg/ml for fungi and from 15.6 to 500 μg/ml for S. aureus and E. coli) of the surfactants was evaluated by absorbance at 600 nm. Inoculum corresponds to prokaryotic cells incubated without surfactants. The samples were prepared in a 96-well plate and incubated for 18 h at 30° C. (fungi) or 37° C. (bacteria) with constant shaking in a Biotek Synergy Mx spectrophotometer.
(§2) Minimum inhibitory concentrations (MICs) were determined by the broth microdilution method according to the National Committee for Clinical Laboratory Standard (for yeasts; NCCLS; M27A2E) and the Clinical and Laboratory Standards Institute (for bacteria; CLSI; M07-A8) guidelines.
(§3) Inoculum corresponds to prokaryotic cells incubated without SNPs. The samples were prepared as described above.
(§4) Typically, SWCNTs coated with DDAB or other surfactants were diluted taking in account the initial surfactant concentration being the SWCNT concentration estimated by the corresponding mass ratio used. The antimicrobial activity of the coated SWCNTs was tested in suspension against Candida albicans ATCC 10231 (C. albicans, fungi), Staphylococcus aureus ATCC 6538 (S. aureus, bacteria gram-positive) and Escherichia coli ATCC 25922 (E. coli, bacteria gram-negative). Yeast Peptone Dextrose (YPD) and Tryptone Soy Yeast (TSY) media were used to culture yeast and bacteria, respectively. […] Inoculum corresponds to cells incubated without CNTs. The samples were prepared in a 96-well plate and incubated for 18 h at 30° C. (fungi) or 37° C. (bacteria) with constant shaking in a Biotek Synergy Mx spectrophotometer.
For data set [3], the system named is Escherichia coli ATCC 25922. Described as above. To be noted: for MIC: Escherichia coli, ATCC25922, 18 h.
Protocol: as §1, §2, §3, §4
In data set [4] the test system is Candida albicans ATCC 10231. The description is as above. To be noted: for MIC: Candida albicans, ATCC10231, 18 h.
Protocol: as §1, §2, §3, §4
Setting [5] is: read-out: MIC S. aureus, soluble surfactant, 15.6 to 500 μg/ml, 18 h at 37° C.
The mark [6] stands for this setting: soluble surfactant, 15.6 to 500 μg/ml, 18 h at 37° C.

The structures appear in SMILES notation. Like-named read-outs stand apart in the source and are kept apart here.

In data set [1], `CCCCCCCCCCCC[N+](C)(CCCCCCCCCCCC)CCCCCCCCCCCC.[Cl-]` [TMAC, tridodecylmethylammonium chloride] registered a CMC of 246.2 µg/mL. Also, the MIC in data set [2] (setting [5]) turned out to be 125 µg/mL.

Regarding `CCCCCCCCCCCC[N+](C)(C)C.[Br-]` [DTAB, dodecyltrimethylammonium bromide], the MIC in data set [3] (read-out: MIC E. coli, soluble surfactant, 15.6 to 500 μg/ml, 18 h at 37° C.) is 125 µg/mL; in data set [4] (read-out: MIC C. albicans), 250 µg/mL; in data set [2] (read-out: MIC S. aureus), 31.2 µg/mL. Also, the “MIC E. coli” value in data set [3] (setting [6]) is 62.5 µg/mL. Further, the CMC in data set [1] amounted to 3515.1 µg/mL.

Compound `CCCCCCCCCCCCCC[N+](C)(C)CCCCCCCCCCCCCC.[Br-]` [DTDAB, ditetradecyldimethylammonium bromide] gave a CMC in data set [1] of 7.8 µg/mL.

`CCCCCCCCCCCCCCCC[N+](C)(C)CCCCCCCCCCCCCCCC.[Br-]` [DHDAB, dihexadecyldimethylammonium bromide] came in with a CMC in data set [1] of 5.2 µg/mL.

On to `CCCCCCCCCCCC[N+](C)(C)CCCCCCCCCCCC.[Br-]` [DDAB, didodecyldimethylammonium bromide], for which the MIC is 125 µg/mL in data set [3] (read-out: MIC E. coli); 125 µg/mL in data set [4] (read-out: MIC C. albicans, soluble surfactant, 62.5 to 500 μg/ml, 18 h at 30° C.); 31.2 µg/mL in data set [2] (setting [5]). In data set [4] (soluble surfactant, 62.5 to 500 μg/ml, 18 h at 30° C.), the “MIC C. albicans” value amounted to 250 µg/mL. The compound further yielded a CMC in data set [1] of 32.4 µg/mL. Further, in data set [2] (setting [6]), the “MIC S. aureus” value was 31.3 µg/mL.
